Reference: ChEMBL document CHEMBL1150886, “Cytotoxic compounds from the roots of Juglans mandshurica” (J Nat Prod, 1998)
Converted amounts (≈) assume the structure as drawn.

Experiments:
HT-29 = assay: Cytotoxicity against human HT-29 cells by MTT assay; assay type: functional, cell-based
A549 = assay: Cytotoxicity against human A549 cells by MTT assay; assay type: functional, cell-based

COC1=CC(=O)c2c(O)cccc2C1=O
IC50 (HT-29): 2.63 µg/mL (≈ 12.9 µM)
IC50 (A549): 0.08 µg/mL (≈ 0.392 µM)

COc1cc(C(=O)OC[C@H]2O[C@@H](Oc3ccc(O)c4c3C(O)CCC4=O)[C@H](O)[C@@H](O)[C@@H]2O)cc(OC)c1O (some centres undefined)
IC50 (HT-29): > 50 µg/mL
IC50 (A549): > 50 µg/mL

COC(=O)C(O)(c1cc2c(c3oc([C@]4(C)C[C@@H]4C)cc(=O)c13)C(=O)c1c(ccc([C@H]3C[C@](C)(N(C)C)[C@H](O[C@@H]4C[C@H](OC)[C@H](O)[C@@H](C)O4)[C@H](C)O3)c1O)C2=O)[C@H]1O[C@H](C)[C@@H](O)[C@@H](OC)[C@@H]1O (some centres undefined) [ALTROMYCIN B]
IC50 (HT-29): 3.98 µg/mL (≈ 4.31 µM)

COC(=O)c1cc(O[C@H]2O[C@@H](CO)[C@H](O)[C@@H](O)[C@@H]2O)c2c(O)cccc2c1O
IC50 (HT-29): 8.06 µg/mL (≈ 20.3 µM)
IC50 (A549): 7.79 µg/mL (≈ 19.7 µM)

COc1cc2ccc1Oc1cc(ccc1O)CC(O[C@@H]1O[C@H](CO)[C@@H](O)[C@H](O)[C@H]1O)C(=O)CCCC2 (some centres undefined)
IC50 (HT-29): > 50 µg/mL
IC50 (A549): > 50 µg/mL
